Results taken from ChEMBL document CHEMBL5357015, “Synthesis, Antiacetylcholinesterase Activity, and Molecular Dynamics Simulation of Aporphine-benzylpyridinium Conjugates” (ACS Med Chem Lett, 2024).
Counter-ions that a name gives are not always drawn.

Target: Cholinesterase (Equus caballus, UniProt P81908)
Sequence (P81908 whole entry): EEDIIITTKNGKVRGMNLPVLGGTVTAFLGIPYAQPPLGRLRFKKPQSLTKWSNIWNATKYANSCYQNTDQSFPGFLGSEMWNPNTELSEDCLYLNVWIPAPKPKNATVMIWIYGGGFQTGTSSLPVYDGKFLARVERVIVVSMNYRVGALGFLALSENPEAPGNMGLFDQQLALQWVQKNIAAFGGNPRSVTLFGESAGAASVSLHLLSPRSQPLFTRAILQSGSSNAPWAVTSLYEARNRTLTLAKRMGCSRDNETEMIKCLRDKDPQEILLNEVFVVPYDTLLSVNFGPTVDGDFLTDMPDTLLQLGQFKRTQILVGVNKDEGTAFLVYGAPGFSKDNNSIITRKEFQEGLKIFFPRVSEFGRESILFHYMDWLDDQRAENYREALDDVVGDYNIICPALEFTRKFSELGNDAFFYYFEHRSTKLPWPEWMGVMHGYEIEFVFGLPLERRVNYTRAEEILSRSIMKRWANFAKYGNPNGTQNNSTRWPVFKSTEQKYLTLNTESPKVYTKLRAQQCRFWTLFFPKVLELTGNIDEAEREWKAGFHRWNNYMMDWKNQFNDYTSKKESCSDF
Assay: Inhibition of horse serum BuChE using butyrylthiocholine iodide as substrate preincubated for 20 mins followed by substrate addition and measured every 20 secs for 3 mins by Ellman's method
Settings: not given
With `COc1cc2c3c(c1OC)-c1ccccc1C[C@@H]3N(C(=O)c1cc[n+](Cc3ccc(F)cc3)cc1)CC2` the IC50 was 8580 nM. In the case of `COc1cc2c3c(c1OC)-c1ccccc1C[C@H]3N(C(=O)c1cc[n+](Cc3ccc(F)cc3)cc1)CC2`, the IC50 is reported as 15400 nM. In the case of `COc1cc2c3c(cc4ccccc4c3c1OC)N(C(=O)c1cc[n+](Cc3ccccc3Cl)cc1)CC2`, the IC50 is reported as 440 nM. `COc1cc2c3c(c1OC)-c1ccccc1CC3N(C(=O)c1cc[n+](Cc3ccccc3Cl)cc1)CC2.[Br-]` (racemic) gave an IC50 of 710 nM. `COc1cc2c3c(c1OC)-c1ccccc1C[C@@H]3N(C(=O)c1cc[n+](Cc3ccccc3)cc1)CC2` gave an IC50 of 4900 nM. For `COc1cc2c3c(c1OC)-c1ccccc1CC3N(C(=O)c1cc[n+](Cc3ccccc3F)cc1)CC2` (racemic), the IC50 was 1370 nM. For `COc1cc2c3c(c1OC)-c1ccccc1CC3N(C(=O)c1cc[n+](Cc3cccc(F)c3)cc1)CC2` (racemic), the IC50 was 1340 nM. In the case of `COc1cc2c3c(c1OC)-c1ccccc1C[C@H]3N(C(=O)c1cc[n+](Cc3ccccc3)cc1)CC2`, the IC50 is reported as 4950 nM. With `COc1cc2c3c(c1OC)-c1ccccc1CC3N(C(=O)c1cc[n+](Cc3cccc(Cl)c3)cc1)CC2` (racemic) the IC50 was 960 nM. With `COc1cc2c3c(c1OC)-c1ccccc1CC3N(C(=O)c1cc[n+](Cc3ccc(F)cc3)cc1)CC2.[Br-]` (racemic) the IC50 was 4730 nM. `COc1cc2c3c(c1OC)-c1ccccc1CC3N(C(=O)c1cc[n+](Cc3c(F)cccc3F)cc1)CC2` (racemic) gave an IC50 of 970 nM. Compound `COc1cc2c3c(c1OC)-c1ccccc1C[C@H]3N(C(=O)c1cc[n+](Cc3ccccc3Cl)cc1)CC2.[Br-]` has an IC50 of 2490 nM. For `COc1cc2c3c(c1OC)-c1ccccc1CC3N(C(=O)c1cc[n+](Cc3ccccc3)cc1)CC2.[Br-]` (racemic), the IC50 was 1330 nM. `COc1cc2c3c(c1OC)-c1ccccc1C[C@@H]3N(C(=O)c1cc[n+](Cc3ccccc3Cl)cc1)CC2.[Br-]` gave an IC50 of 1820 nM. For `COc1cc2c3c(cc4ccccc4c3c1OC)N(C(=O)c1cc[n+](Cc3ccccc3F)cc1)CC2`, the IC50 was 280 nM. Compound `COc1cc2c3c(c1OC)-c1ccccc1CC3N(C(=O)c1cc[n+](Cc3cccc(F)c3F)cc1)CC2` (racemic) has an IC50 of 1540 nM.

Target: T1, Acetylcholinesterase (Electrophorus electricus, UniProt O42275)
T1 sequence (O42275 whole entry): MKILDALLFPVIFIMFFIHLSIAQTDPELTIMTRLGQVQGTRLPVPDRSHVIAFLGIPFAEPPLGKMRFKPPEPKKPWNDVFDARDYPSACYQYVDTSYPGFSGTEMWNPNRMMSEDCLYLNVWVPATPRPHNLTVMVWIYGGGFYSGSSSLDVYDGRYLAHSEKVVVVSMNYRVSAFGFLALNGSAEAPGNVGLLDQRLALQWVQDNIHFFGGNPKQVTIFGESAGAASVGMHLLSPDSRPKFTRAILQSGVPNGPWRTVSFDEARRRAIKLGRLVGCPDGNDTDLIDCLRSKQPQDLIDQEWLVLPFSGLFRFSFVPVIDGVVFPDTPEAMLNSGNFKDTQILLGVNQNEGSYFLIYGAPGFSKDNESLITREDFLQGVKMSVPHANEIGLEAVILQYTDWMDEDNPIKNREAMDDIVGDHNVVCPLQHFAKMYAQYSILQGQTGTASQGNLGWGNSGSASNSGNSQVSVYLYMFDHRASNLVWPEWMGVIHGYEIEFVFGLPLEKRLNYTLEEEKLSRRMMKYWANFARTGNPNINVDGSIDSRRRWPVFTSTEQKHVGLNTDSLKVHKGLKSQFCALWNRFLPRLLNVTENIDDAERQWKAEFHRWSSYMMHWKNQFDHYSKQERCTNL
Assay: Inhibition of electric eel AChE using acetylthiocholine iodide as substrate preincubated for 20 mins followed by substrate addition and measured every 20 secs for 3 mins by Ellman's method
Settings: not given
Work on `COc1cc2c3c(c1OC)-c1ccccc1C[C@@H]3N(C(=O)c1cc[n+](Cc3ccc(F)cc3)cc1)CC2` yielded an IC50 of 370 nM. `COc1cc2c3c(c1OC)-c1ccccc1C[C@H]3N(C(=O)c1cc[n+](Cc3ccc(F)cc3)cc1)CC2` gave an IC50 of 12200 nM. Work on `COc1cc2c3c(cc4ccccc4c3c1OC)N(C(=O)c1cc[n+](Cc3ccccc3Cl)cc1)CC2` yielded an IC50 of 1640 nM. Work on `COc1cc2c3c(c1OC)-c1ccccc1CC3N(C(=O)c1cc[n+](Cc3ccccc3Cl)cc1)CC2.[Br-]` (racemic) yielded an IC50 of 180 nM. In the case of `COc1cc2c3c(c1OC)-c1ccccc1C[C@@H]3N(C(=O)c1cc[n+](Cc3ccccc3)cc1)CC2`, the IC50 is reported as 120 nM. With `COc1cc2c3c(c1OC)-c1ccccc1CC3N(C(=O)c1cc[n+](Cc3ccccc3F)cc1)CC2` (racemic) the IC50 was 410 nM. In the case of `COc1cc2c3c(c1OC)-c1ccccc1CC3N(C(=O)c1cc[n+](Cc3cccc(F)c3)cc1)CC2` (racemic), the IC50 is reported as 450 nM. Work on `COc1cc2c3c(c1OC)-c1ccccc1C[C@H]3N(C(=O)c1cc[n+](Cc3ccccc3)cc1)CC2` yielded an IC50 of 7150 nM. In the case of `COc1cc2c3c(c1OC)-c1ccccc1CC3N(C(=O)c1cc[n+](Cc3cccc(Cl)c3)cc1)CC2` (racemic), the IC50 is reported as 2150 nM. With `COc1cc2c3c(c1OC)-c1ccccc1CC3N(C(=O)c1cc[n+](Cc3ccc(F)cc3)cc1)CC2.[Br-]` (racemic) the IC50 was 660 nM. With `COc1cc2c3c(c1OC)-c1ccccc1CC3N(C(=O)c1cc[n+](Cc3c(F)cccc3F)cc1)CC2` (racemic) the IC50 was 800 nM. In the case of `COc1cc2c3c(c1OC)-c1ccccc1C[C@H]3N(C(=O)c1cc[n+](Cc3ccccc3Cl)cc1)CC2.[Br-]`, the IC50 is reported as 2940 nM. For `COc1cc2c3c(c1OC)-c1ccccc1CC3N(C(=O)c1cc[n+](Cc3ccccc3)cc1)CC2.[Br-]` (racemic), the IC50 was 350 nM. Compound `COc1cc2c3c(c1OC)-c1ccccc1C[C@@H]3N(C(=O)c1cc[n+](Cc3ccccc3Cl)cc1)CC2.[Br-]` has an IC50 of 60 nM. Work on `COc1cc2c3c(cc4ccccc4c3c1OC)N(C(=O)c1cc[n+](Cc3ccccc3F)cc1)CC2` yielded an IC50 of 2730 nM. In the case of `COc1cc2c3c(c1OC)-c1ccccc1CC3N(C(=O)c1cc[n+](Cc3cccc(F)c3F)cc1)CC2` (racemic), the IC50 is reported as 750 nM.

Target: Acetylcholinesterase (Electrophorus electricus) (UniProt O42275)
Sequence (O42275 24-633 limits assumed): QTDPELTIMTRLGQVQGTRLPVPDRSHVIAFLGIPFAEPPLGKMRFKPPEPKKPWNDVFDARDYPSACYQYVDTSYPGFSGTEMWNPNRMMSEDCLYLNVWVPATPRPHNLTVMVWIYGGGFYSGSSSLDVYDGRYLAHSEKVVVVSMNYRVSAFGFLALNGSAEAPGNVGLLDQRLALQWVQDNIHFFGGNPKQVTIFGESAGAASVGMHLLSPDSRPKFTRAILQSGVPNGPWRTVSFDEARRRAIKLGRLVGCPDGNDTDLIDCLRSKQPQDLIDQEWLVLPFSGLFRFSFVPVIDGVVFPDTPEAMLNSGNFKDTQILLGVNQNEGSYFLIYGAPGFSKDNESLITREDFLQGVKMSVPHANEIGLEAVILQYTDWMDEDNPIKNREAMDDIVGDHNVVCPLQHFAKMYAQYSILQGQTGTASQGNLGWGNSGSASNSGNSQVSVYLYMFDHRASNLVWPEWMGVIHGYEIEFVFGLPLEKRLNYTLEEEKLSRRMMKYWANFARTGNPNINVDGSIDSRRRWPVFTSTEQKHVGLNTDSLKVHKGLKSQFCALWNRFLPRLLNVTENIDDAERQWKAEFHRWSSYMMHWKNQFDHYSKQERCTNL
Assay: Inhibition of electric eel AChE using acetylthiocholine iodide as substrate at 10 uM preincubated for 20 mins followed by substrate addition and measured every 20 secs for 3 mins by Ellman's method relative to control
Settings: time 23.0 min
`COc1cc2c3c(cc4ccccc4c3c1OC)N(C(=O)c1ccncc1)CC2` gave an inhibition of 16%. Compound `COc1cc2c3c(c1OC)-c1ccccc1CC3N(C(=O)c1ccncc1)CC2` (racemic) has an inhibition of 5%. `COc1cc2c3c(cc4ccccc4c3c1OC)N(C(=O)c1cc[n+](Cc3ccccc3)cc1)CC2` gave an inhibition of 69%. Work on `COc1cc2c3c(c1OC)-c1ccccc1CC3N(C(=O)c1cc[n+](Cc3ccc(Cl)cc3)cc1)CC2` (racemic) yielded an inhibition of 31%. Compound `COc1cc2c3c(cc4ccccc4c3c1OC)NCC2` has an inhibition of 12%.

System: MRC5
Assay: Cytotoxicity against human MRC5 cells assessed as reduction in cell viability at 50 ug/ml relative to control
Format: toxicity, cell-based
Settings: at 50 µg/mL
`COc1cc2c3c(c1OC)-c1ccccc1CC3N(C(=O)c1cc[n+](Cc3ccccc3Cl)cc1)CC2.[Br-]` (racemic) showed an Activity of 2.96%. `COc1cc2c3c(c1OC)-c1ccccc1CC3N(C(=O)c1cc[n+](Cc3ccc(F)cc3)cc1)CC2.[Br-]` (racemic) showed an Activity of 2.46%. `COc1cc2c3c(c1OC)-c1ccccc1C[C@H]3N(C(=O)c1cc[n+](Cc3ccccc3Cl)cc1)CC2.[Br-]` showed an Activity of 5.3%. `COc1cc2c3c(c1OC)-c1ccccc1CC3N(C(=O)c1cc[n+](Cc3ccccc3)cc1)CC2.[Br-]` (racemic) gave an Activity of 3.62%. In the case of `COc1cc2c3c(c1OC)-c1ccccc1C[C@@H]3N(C(=O)c1cc[n+](Cc3ccccc3Cl)cc1)CC2.[Br-]`, the Activity is reported as 5.03%.

System: not listed separately
Assay: Cytotoxicity against human MRC5 cells assessed as reduction in cell viability
Format: toxicity, cell-based
Settings: not given
In the case of `COc1cccc2c1C(=O)c1c(O)c3c(c(O)c1C2=O)C[C@@](O)(C(=O)CO)C[C@@H]3O[C@H]1C[C@H](N)[C@H](O)[C@H](C)O1` [DOXORUBICIN HYDROCHLORIDE], the IC50 is reported as 1.54 µg/mL.

System: not listed separately
Assay: Selectivity index, ratio of IC50 for horse serum BuChE using butyrylthiocholine iodide as substrate to IC50 for electric eel AChE using acetylthiocholine iodide as substrate
Settings: not given
With `COc1cc2c3c(c1OC)-c1ccccc1C[C@@H]3N(C(=O)c1cc[n+](Cc3ccc(F)cc3)cc1)CC2` the Ratio IC50 was 23.2. `COc1cc2c3c(c1OC)-c1ccccc1C[C@H]3N(C(=O)c1cc[n+](Cc3ccc(F)cc3)cc1)CC2` showed a Ratio IC50 of 1.3. In the case of `COc1cc2c3c(cc4ccccc4c3c1OC)N(C(=O)c1cc[n+](Cc3ccccc3Cl)cc1)CC2`, the Ratio IC50 is reported as 0.3. `COc1cc2c3c(c1OC)-c1ccccc1CC3N(C(=O)c1cc[n+](Cc3ccccc3Cl)cc1)CC2.[Br-]` (racemic) gave a Ratio IC50 of 3.9. With `COc1cc2c3c(c1OC)-c1ccccc1C[C@@H]3N(C(=O)c1cc[n+](Cc3ccccc3)cc1)CC2` the Ratio IC50 was 40.8. In the case of `COc1cc2c3c(c1OC)-c1ccccc1CC3N(C(=O)c1cc[n+](Cc3ccccc3F)cc1)CC2` (racemic), the Ratio IC50 is reported as 3.3. With `COc1cc2c3c(c1OC)-c1ccccc1CC3N(C(=O)c1cc[n+](Cc3cccc(F)c3)cc1)CC2` (racemic) the Ratio IC50 was 3. `COc1cc2c3c(c1OC)-c1ccccc1C[C@H]3N(C(=O)c1cc[n+](Cc3ccccc3)cc1)CC2` showed a Ratio IC50 of 0.7. `COc1cc2c3c(c1OC)-c1ccccc1CC3N(C(=O)c1cc[n+](Cc3cccc(Cl)c3)cc1)CC2` (racemic) gave a Ratio IC50 of 0.5. For `COc1cc2c3c(c1OC)-c1ccccc1CC3N(C(=O)c1cc[n+](Cc3ccc(F)cc3)cc1)CC2.[Br-]` (racemic), the Ratio IC50 was 7. `COc1cc2c3c(c1OC)-c1ccccc1CC3N(C(=O)c1cc[n+](Cc3c(F)cccc3F)cc1)CC2` (racemic) gave a Ratio IC50 of 1.2. For `COc1cc2c3c(c1OC)-c1ccccc1C[C@H]3N(C(=O)c1cc[n+](Cc3ccccc3Cl)cc1)CC2.[Br-]`, the Ratio IC50 was 0.8. For `COc1cc2c3c(c1OC)-c1ccccc1CC3N(C(=O)c1cc[n+](Cc3ccccc3)cc1)CC2.[Br-]` (racemic), the Ratio IC50 was 3.8. With `COc1cc2c3c(c1OC)-c1ccccc1C[C@@H]3N(C(=O)c1cc[n+](Cc3ccccc3Cl)cc1)CC2.[Br-]` the Ratio IC50 was 30.3. In the case of `COc1cc2c3c(cc4ccccc4c3c1OC)N(C(=O)c1cc[n+](Cc3ccccc3F)cc1)CC2`, the Ratio IC50 is reported as 0.1. With `COc1cc2c3c(c1OC)-c1ccccc1CC3N(C(=O)c1cc[n+](Cc3cccc(F)c3F)cc1)CC2` (racemic) the Ratio IC50 was 2.

Target: T1, Acetylcholinesterase
Assay: Binding affinity to electric eel AChE assessed as inhibition constant by Lineweaver-Burk plot analysis
Settings: not given
Work on `COc1cc2c3c(c1OC)-c1ccccc1C[C@@H]3N(C(=O)c1cc[n+](Cc3ccc(F)cc3)cc1)CC2` yielded a Ki of 270 nM. Compound `COc1cc2c3c(c1OC)-c1ccccc1C[C@H]3N(C(=O)c1cc[n+](Cc3ccc(F)cc3)cc1)CC2` has a Ki of 6870 nM. In the case of `COc1cc2c3c(c1OC)-c1ccccc1C[C@@H]3N(C(=O)c1cc[n+](Cc3ccccc3)cc1)CC2`, the Ki is reported as 170 nM. With `COc1cc2c3c(c1OC)-c1ccccc1C[C@H]3N(C(=O)c1cc[n+](Cc3ccccc3)cc1)CC2` the Ki was 2570 nM. Compound `COc1cc2c3c(c1OC)-c1ccccc1C[C@H]3N(C(=O)c1cc[n+](Cc3ccccc3Cl)cc1)CC2.[Br-]` has a Ki of 1650 nM. For `COc1cc2c3c(c1OC)-c1ccccc1C[C@@H]3N(C(=O)c1cc[n+](Cc3ccccc3Cl)cc1)CC2.[Br-]`, the Ki was 220 nM.

System: not listed separately
Assay: Lipophilicity, log P of the compound in n-octanol/water by HPLC method
Format: physicochemical
Settings: not given
Compound `COc1cc2c3c(c1OC)-c1ccccc1C[C@@H]3N(C(=O)c1cc[n+](Cc3ccc(F)cc3)cc1)CC2` has a logP of 2.3. In the case of `COc1cc2c3c(c1OC)-c1ccccc1C[C@H]3N(C(=O)c1cc[n+](Cc3ccc(F)cc3)cc1)CC2`, the logP is reported as 2.3. Compound `COc1cc2c3c(c1OC)-c1ccccc1CC3N(C(=O)c1cc[n+](Cc3ccccc3Cl)cc1)CC2.[Br-]` (racemic) has a logP of 2.36. Compound `COc1cc2c3c(c1OC)-c1ccccc1C[C@@H]3N(C(=O)c1cc[n+](Cc3ccccc3)cc1)CC2` has a logP of 2.2. `COc1cc2c3c(c1OC)-c1ccccc1C[C@H]3N(C(=O)c1cc[n+](Cc3ccccc3)cc1)CC2` showed a logP of 2.2. `COc1cc2c3c(c1OC)-c1ccccc1CC3N(C(=O)c1cc[n+](Cc3cccc(Cl)c3)cc1)CC2` (racemic) showed a logP of 2.62. Compound `COc1cc2c3c(c1OC)-c1ccccc1CC3N(C(=O)c1cc[n+](Cc3ccc(F)cc3)cc1)CC2.[Br-]` (racemic) has a logP of 2.3. Work on `COc1cc2c3c(c1OC)-c1ccccc1CC3N(C(=O)c1cc[n+](Cc3c(F)cccc3F)cc1)CC2` (racemic) yielded a logP of 2.08. `COc1cc2c3c(c1OC)-c1ccccc1C[C@H]3N(C(=O)c1cc[n+](Cc3ccccc3Cl)cc1)CC2.[Br-]` showed a logP of 2.36. `COc1cc2c3c(c1OC)-c1ccccc1CC3N(C(=O)c1cc[n+](Cc3ccccc3)cc1)CC2.[Br-]` (racemic) gave a logP of 2.2. `COc1cc2c3c(c1OC)-c1ccccc1C[C@@H]3N(C(=O)c1cc[n+](Cc3ccccc3Cl)cc1)CC2.[Br-]` showed a logP of 2.36. Compound `COc1cc2c3c(c1OC)-c1ccccc1CC3N(C(=O)c1cc[n+](Cc3ccc(Cl)cc3)cc1)CC2` (racemic) has a logP of 2.67.
